# According to ChEMBL document CHEMBL2073763, “Functional involvement of rat organic anion transporter 3 (rOat3; Slc22a8) in the renal uptake of organic anions” (J Pharmacol Exp Ther, 2002):
# T1: Organic anion transporter 3 (Rattus norvegicus, UniProt Q9R1U7)
# T1 sequence (Q9R1U7 whole entry): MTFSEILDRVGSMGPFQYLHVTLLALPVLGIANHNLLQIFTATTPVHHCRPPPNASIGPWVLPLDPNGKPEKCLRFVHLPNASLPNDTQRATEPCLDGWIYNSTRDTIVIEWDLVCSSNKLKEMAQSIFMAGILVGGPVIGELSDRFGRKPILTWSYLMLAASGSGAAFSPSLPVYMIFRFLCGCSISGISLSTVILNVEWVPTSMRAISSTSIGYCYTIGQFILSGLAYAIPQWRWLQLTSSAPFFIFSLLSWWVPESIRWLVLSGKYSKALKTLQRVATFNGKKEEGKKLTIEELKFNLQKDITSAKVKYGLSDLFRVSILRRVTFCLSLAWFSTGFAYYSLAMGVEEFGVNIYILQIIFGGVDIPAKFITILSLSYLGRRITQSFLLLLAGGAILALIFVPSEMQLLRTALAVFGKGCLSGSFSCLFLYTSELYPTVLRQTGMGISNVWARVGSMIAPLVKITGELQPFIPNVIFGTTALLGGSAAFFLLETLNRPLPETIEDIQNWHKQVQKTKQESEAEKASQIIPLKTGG
# T2: Solute carrier family 22 member 6 (Rattus norvegicus, UniProt O35956)
# T2 sequence (O35956 whole entry): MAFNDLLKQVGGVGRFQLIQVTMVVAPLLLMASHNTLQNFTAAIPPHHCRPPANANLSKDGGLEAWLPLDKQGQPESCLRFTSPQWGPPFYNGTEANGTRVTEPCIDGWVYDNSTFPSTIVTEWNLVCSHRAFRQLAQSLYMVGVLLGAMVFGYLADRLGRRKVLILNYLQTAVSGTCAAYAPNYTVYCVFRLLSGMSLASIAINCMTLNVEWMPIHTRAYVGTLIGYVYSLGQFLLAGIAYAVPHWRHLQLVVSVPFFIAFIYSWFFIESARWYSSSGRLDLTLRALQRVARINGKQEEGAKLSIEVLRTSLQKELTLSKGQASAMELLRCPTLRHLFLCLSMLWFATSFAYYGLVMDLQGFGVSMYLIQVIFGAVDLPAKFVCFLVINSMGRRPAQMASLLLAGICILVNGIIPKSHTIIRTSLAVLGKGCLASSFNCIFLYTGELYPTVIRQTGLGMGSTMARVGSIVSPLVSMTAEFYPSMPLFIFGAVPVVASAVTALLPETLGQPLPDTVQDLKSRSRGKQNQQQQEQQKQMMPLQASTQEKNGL
# Assays:
# Assay type in all cases: functional, cell-based
# [1] = biological target: T1, Organic anion transporter 3; assay: TP_TRANSPORTER: inhibition of Pravastatin uptake in Oat3-expressing LLC-PK1 cells
# [2] = biological target: T2, Solute carrier family 22 member 6; assay: TP_TRANSPORTER: inhibition of PAH uptake in Oat1-expressing LLC-PK1 cells
# [3] = substrate: CC[C@H](C)C(=O)O[C@H]1C[C@H](O)C=C2C=C[C@H](C)[C@H](CC[C@@H](O)C[C@@H](O)CC(=O)O)[C@H]21; assay: TP_TRANSPORTER: uptake in Oat3-expressing LLC-PK1 cells
Molecule,Ki [1] [µM],Ki [2] [µM],Km [3] [µM]
Nc1ccc(C(=O)NCC(=O)O)cc1 [AMINOHIPPURIC ACID],1350,,
Organic anion transporter 3 (Rattus norvegicus) (protein) MTFSEILDRVGSMGPFQYLHVTLLALPVLGIANHNLLQIFTATTPVHHCRPPPNASIGPWVLPLDPNGKPEKCLRFVHLPNASLPNDTQRATEPCLDGWIYNSTRDTIVIEWDLVCSSNKLKEMAQSIFMAGILVGGPVIGELSDRFGRKPILTWSYLMLAASGSGAAFSPSLPVYMIFRFLCGCSISGISLSTVILNVEWVPTSMRAISSTSIGYCYTIGQFILSGLAYAIPQWRWLQLTSSAPFFIFSLLSWWVPESIRWLVLSGKYSKALKTLQRVATFNGKKEEGKKLTIEELKFNLQKDITSAKVKYGLSDLFRVSILRRVTFCLSLAWFSTGFAYYSLAMGVEEFGVNIYILQIIFGGVDIPAKFITILSLSYLGRRITQSFLLLLAGGAILALIFVPSEMQLLRTALAVFGKGCLSGSFSCLFLYTSELYPTVLRQTGMGISNVWARVGSMIAPLVKITGELQPFIPNVIFGTTALLGGSAAFFLLETLNRPLPETIEDIQNWHKQVQKTKQESEAEKASQIIPLKTGG,,,13.4

# Second part, led by results:
Ki [1] [µM],Ki [2] [µM],Molecule,Km [3] [µM]
3.09,2.74,O=C1OC(c2ccc(OS(=O)(=O)O)cc2)(c2ccc(OS(=O)(=O)O)cc2)c2c(Br)ccc(Br)c21 [DIBROMOSULFOPHTHALEIN],
52.8,,CC1(C)S[C@@H]2[C@H](NC(=O)Cc3ccccc3)C(=O)N2[C@H]1C(=O)O [PENICILLIN G],
,1150,CC[C@H](C)C(=O)O[C@H]1C[C@H](O)C=C2C=C[C@H](C)[C@H](CC[C@@H](O)C[C@@H](O)CC(=O)O)[C@H]21 [PRAVASTATIN],
